# Data as given in patent US9650395B2, “Antibacterial compounds and methods for use” (PTC Therapeutics, Inc., priority 2011, dated 2017).
# Read-outs that look alike come from different tables or passages of the source.
# How the values were obtained:
# [1] = system: super sensitive Gram-negative Escherichia coli (E. coli) BAS849; assay: Antibacterial activity, microbroth dilution MIC, E. coli BAS849; assay type: cell-based; conditions: Escherichia coli, read-out: MIC, BAS849
# [2] = system: control Gram-negative E. coli 25922 strain; assay: Antibacterial activity, microbroth dilution MIC, E. coli 25922; assay type: cell-based, Escherichia coli; conditions: Escherichia coli; E. coli 25922, microbroth dilution; read-out: MIC, 25922
# [3] = system: Gram-positive Staphylococcus aureus (S. aureus) 29213; assay: Antibacterial activity, microbroth dilution MIC, S. aureus 29213; assay type: cell-based; conditions: Staphylococcus aureus; S. aureus 29213, microbroth dilution; read-out: MIC, 29213
# [4] = system: quinolone resistant E. coli LZ3111; assay: Antibacterial activity, MIC, quinolone resistant E. coli LZ3111; assay type: cell-based, Escherichia coli; conditions: Escherichia coli, read-out: MIC, LZ3111
# Text: (§1) The antibacterial activity from a microbroth dilution method may be presented as the minimum inhibitory concentration (MIC in […]). The MIC value is the lowest concentration of a drug which prevents macroscopically visible bacterial growth under test conditions.
# Mutations in these regions are known to confer a high level resistance to the quinolone class of antibiotics.
# [5] = system: E. coli ELZ4000 (MDR clinical isolate); assay: Antibacterial activity, MIC, MDR E. coli ELZ4000; assay type: cell-based, Escherichia coli; conditions: Escherichia coli; E. coli ELZ4000, MDR clinical isolate; read-out: MIC ELZ4000
# [6] = system: E. coli ELZ4251 (MDR clinical isolate); assay: Antibacterial activity, MIC, MDR E. coli ELZ4251; assay type: cell-based, Escherichia coli; conditions: Escherichia coli, E. coli ELZ4251, MDR clinical isolate; read-out: MIC ELZ4251
# [7] = system: Pseudomonas aeruginosa (P. aeruginosa) 27853; assay: Antibacterial activity, MIC, P. aeruginosa 27853; assay type: cell-based; conditions: Pseudomonas aeruginosa, P. aeruginosa 27853; read-out: MIC 27853
# Text: as §1
# Antibacterial activity of test compounds against the Gram-negative bacterium Pseudomonas aeruginosa (P. aeruginosa) 27853 is shown in Table 5.
# [8] = E. coli BAS849, microbroth dilution
SMILES,"MIC [1, 8]",MIC [2],MIC [3],MIC [4],MIC [5],MIC [6],MIC [7],MIC [1]
"CCc1cc(C(=O)O)c(=O)[nH]c1-c1ccc(OC)cc1 [Cpd 24, 5-ethyl-6-(4-methoxyphenyl)-2-oxo-1,2-dihydropyridine-3-carboxylic acid]",< 1 µg/mL,3.5 to 12.5 µg/mL,12.5 to 150 µg/mL,12.5 to 150 µg/mL,12.5 to 150 µg/mL,12.5 to 150 µg/mL,–,–
"CCc1c(-c2ccc(N3CC[C@H](F)C3)cc2)[nH]c(=O)c(C(=O)O)c1O [Cpd 85, 5-ethyl-6-{4-[(3S)-3-fluoropyrrolidin-1-yl]phenyl}-4-hydroxy-2-oxo-1,2-dihydropyridine-3-carboxylic acid]",< 1 µg/mL,12.5 to 150 µg/mL,3.5 to 12.5 µg/mL,12.5 to 150 µg/mL,12.5 to 150 µg/mL,12.5 to 150 µg/mL,12.5 to 150 µg/mL,–
"CCc1cc(C(=O)O)c(=O)[nH]c1-c1ccc(N2CCC(N=[N+]=[N-])C2)cc1 (centres unmarked) [Cpd 129, 6-[4-(3-azidopyrrolidin-1-yl)phenyl]-5-ethyl-2-oxo-1,2-dihydropyridine-3-carboxylic acid]",< 1 µg/mL,1 to 3.5 µg/mL,3.5 to 12.5 µg/mL,12.5 to 150 µg/mL,12.5 to 150 µg/mL,12.5 to 150 µg/mL,12.5 to 150 µg/mL,–
"CCc1cc(C(=O)O)c(=O)[nH]c1-c1ccc(N2CC[C@H](N=[N+]=[N-])C2)cc1 [Cpd 130, 6-{4-[(3S)-3-azidopyrrolidin-1-yl]phenyl}-5-ethyl-2-oxo-1,2-dihydropyridine-3-carboxylic acid]",< 1 µg/mL,1 to 3.5 µg/mL,3.5 to 12.5 µg/mL,12.5 to 150 µg/mL,12.5 to 150 µg/mL,12.5 to 150 µg/mL,–,–
"CCc1cc(C(=O)O)c(=O)[nH]c1-c1ccc(N2CCC(N)C2)cc1.O=C(O)C(F)(F)F (centres unmarked) [Cpd 131, 6-[4-(3-aminopyrrolidin-1-yl)phenyl]-5-ethyl-2-oxo-1,2-dihydropyridine-3-carboxylic acid trifluoroacetate]",–,3.5 to 12.5 µg/mL,12.5 to 150 µg/mL,12.5 to 150 µg/mL,12.5 to 150 µg/mL,12.5 to 150 µg/mL,12.5 to 150 µg/mL,< 1 µg/mL
"CCc1cc(C(=O)O)c(=O)[nH]c1-c1ccc(N2CCCC2C)cc1 (centres unmarked) [Cpd 139, 5-ethyl-6-[4-(2-methylpyrrolidin-1-yl)phenyl]-2-oxo-1,2-dihydropyridine-3-carboxylic acid]",< 1 µg/mL,3.5 to 12.5 µg/mL,3.5 to 12.5 µg/mL,12.5 to 150 µg/mL,12.5 to 150 µg/mL,12.5 to 150 µg/mL,12.5 to 150 µg/mL,–
"CCc1cc(C(=O)O)c(=O)[nH]c1-c1ccc(N2CCC(N(C)C)C2)cc1 (centres unmarked) [Cpd 149, 6-{4-[3-(dimethylamino)pyrrolidin-1-yl]phenyl}-5-ethyl-2-oxo-1,2-dihydropyridine-3-carboxylic acid]",< 1 µg/mL,1 to 3.5 µg/mL,12.5 to 150 µg/mL,12.5 to 150 µg/mL,12.5 to 150 µg/mL,12.5 to 150 µg/mL,12.5 to 150 µg/mL,–
"CCc1cc(C(=O)O)c(=O)[nH]c1-c1ccc(N2CCC(F)C2)cc1 (centres unmarked) [Cpd 152, 5-ethyl-6-[4-(3-fluoropyrrolidin-1-yl)phenyl]-2-oxo-1,2-dihydropyridine-3-carboxylic acid]",< 1 µg/mL,1 to 3.5 µg/mL,3.5 to 12.5 µg/mL,12.5 to 150 µg/mL,12.5 to 150 µg/mL,12.5 to 150 µg/mL,3.5 to 12.5 µg/mL,–
"CCc1cc(C(=O)O)c(=O)[nH]c1-c1ccc(N2CC[C@H](F)C2)cc1 [Cpd 153, 5-ethyl-6-{4-[(3S)-3-fluoropyrrolidin-1-yl]phenyl}-2-oxo-1,2-dihydropyridine-3-carboxylic acid]",< 1 µg/mL,< 1 µg/mL,1 to 3.5 µg/mL,12.5 to 150 µg/mL,12.5 to 150 µg/mL,12.5 to 150 µg/mL,3.5 to 12.5 µg/mL,–
"CCc1cc(C(=O)O)c(=O)[nH]c1-c1ccc(N(C)c2ccccc2)cc1 [Cpd 158, 5-ethyl-6-{4-[methyl(phenyl)amino]phenyl}-2-oxo-1,2-dihydropyridine-3-carboxylic acid]",< 1 µg/mL,3.5 to 12.5 µg/mL,3.5 to 12.5 µg/mL,12.5 to 150 µg/mL,12.5 to 150 µg/mL,12.5 to 150 µg/mL,12.5 to 150 µg/mL,–
